Results from patent US12661415B2, “Isoindolinone compounds and imaging agents for imaging Huntingtin protein” (CHDI Foundation, Inc., priority 2021, dated 2026).

Tests used:
[1] = Unbound brain fraction (fu,brain) in mouse brain by equilibrium dialysis; assay type: in vitro ADME; conditions: 20% mouse brain homogenate, 5 μM, equilibrium dialysis 6 h at 37° C., average of triplicate
Method: Compounds were tested for unbounded brain fraction (or free fraction in brain, fu,brain). It is an accepted standard in the CNS PET imaging field that compounds with low unbound fraction in brain (<5%) likely have high non-specific binding background that is undesirable for the detection of target binding. As a result, fu,brain is an important property in the design of PET ligands for brain imaging [see Zhang et al., Design and selection parameters to accelerate the discovery of novel central nervous system positron emission tomography (PET) ligands and their application in the development of a novel phosphodiesterase 2A PET ligand. J Med Chem 2013, 56 (11), 4568-79; Liu et al., Imaging Mutant Huntingtin Aggregates: Development of a Potential PET Ligand. J Med Chem 2020, 63 (15), 8608-8633].
Determining fu,brain in Mouse Brain by Equilibrium Dialysis. Dialysis membranes (12-14 kDa) (HTDialysis, Connecticut) were soaked in phosphate buffer (10 mM potassium phosphate and 0.8% sodium chloride buffer, pH 7.4 at 37° C.) for a minimum of 1 h, at this time ethanol was added (final concentration of 20% v/v) and membranes continued to soak for 30 min Mouse brain tissue was diluted in phosphate buffer in a […] (w/v) and homogenised using a Precellys 24 (Stretton Scientific, UK) to achieve a final concentration of 20% brain homogenate.
Test compounds prepared as DMSO stocks at 0.5 mM are diluted into brain homogenate to achieve 5 μM final substrate concentration (1% DMSO) and a t=0 sample was prepared by sampling 50 μL of into 400 μL of quench solution (Acetonitrile containing 0.1% formic acid and sulfisoxazole/tolbutamide/imipramine/labetalol 200 nM). Samples were matrix matched with the addition of 50 μL of assay buffer. The HTDialysis Teflon blocks (HTDialysis, Connecticut) were assembled with pre-soaked membrane between each receiver and donor well and clamped in the stainless steel pressure plate (HTDialysis, Connecticut). The lower compartment (acceptor side) was dosed with 120 μL of buffer and the upper compartment (donor side) was dosed with 120 μL of compound in homogenate. All test compounds and controls were completed in triplicate. The HT dialysis plate was sealed and incubated for 6 h at 37° C. shaking at 250 rpm.
Following the incubation, 50 μL of sample was removed from all donor and acceptor wells and transferred into a quench plate containing 400 μL of quench solution. All samples were matrix matched with 50 μL of the alternate blank matrix. Analytical samples were diluted 1:1 with water using the Janus Robot and analysed by LC-MS/MS.
Peak areas of donor and acceptor compartments were compared to determine percent unbound (% fu) and the average of triplicate measurements was reported. Reference T0 sample was used to calculate sample recovery (%). Control compounds were compared with historic and literature values to ensure assay functionality.

[2] = molecular target: T1, MBP-HTT(1-89)Q46-His(6×) (Exon1-Q46) protein aggregates (Homo sapiens, UniProt P42858, INS38QQQQQQQQQQQQQQQQQQQQQQQQQ); assay: Exon1-Q46 radioligand binding assay (RBA); conditions: aggregated Exon1-Q46 1 μM; 0.3 nM ligand [3H3-methyl]-5-((5-methoxypyridin-2-yl)methoxy)-2-(pyrazin-2-yl)benzo[d]oxazole; 60 minutes at 37° C.; read-out: Potency Range (IC50)
T1 construct: MBP-HTT(1-89)Q46-His(6×); His(6×) (C); made in house
T1 sequence (P42858 with tags, fused parts or gaps with the stated changes): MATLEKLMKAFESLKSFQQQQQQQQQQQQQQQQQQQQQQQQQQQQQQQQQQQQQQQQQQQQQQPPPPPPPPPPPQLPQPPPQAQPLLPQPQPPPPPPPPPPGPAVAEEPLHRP
Method: Exon1-Q46 Radioligand Binding Assay
For radioligand binding assays (RBA) MBP-HTT(1-89)Q46-His(6×) (“Exon1-Q46”) protein was generated based on a previous publication (Scherzinger et al. Cell, Vol. 90, 549-558, Aug. 8, 1997). For experiments 30 μM MBP-Exon1-Q46 was incubated with 150 μg/mL thrombin in assay buffer (150 mM NaCl, 50 mM Tris pH 8.0) and 2 mM CaCl2 for 16 hours at 37° C. Aggregated Exon1-Q46 was pelleted by centrifugation for 5 minutes at 13,000 rpm in a bench top centrifuge and re-dissolved in the same volume of assay buffer. Test compounds were prepared by titration in DMSO at 11 concentrations from 63 μM to 2 nM. For the RBA, Exon1-Q46 protein aggregates and test compounds were pre-incubated in assay buffer for 20 minutes at room temperature, in 100 μL/well in a 96-well plate (pp, round bottom). Then, ligand was added in 50 μL/well and incubated for 60 minutes at 37° C. Final assay concentrations were 1 μM to 30 pM test compound, 1 μM Exon1-Q46 protein (equivalent monomer concentration) and 0.3 nM ligand [^3H3-methyl]-5-((5-methoxypyridin-2-yl)methoxy)-2-(pyrazin-2-yl)benzo[d]oxazole. Samples were transferred onto GF/B filter plates and washed 2× with 200 μL PBS using a Filtermate Harvester. After drying filter plates for 1 hour at 55° C., the back of the plates were sealed with foil and 30 μL/well scintillation fluid (Packard MicroScint 40) added, incubated for 15 minutes in the dark and counted in a MicroBeta reader. For analysis, replicate data from independent assay plates were normalized towards 0% and 100% inhibition using control wells of vehicle (0% inhibition) and 1 μM unlabelled [^3H3-methyl]-5-((5-methoxypyridin-2-yl)methoxy)-2-(pyrazin-2-yl)benzo[d]oxazole (100% inhibition). IC50 values were determined with a sigmoidal inhibition model with four variables (top, bottom, slope, IC50) in a global fit using the normalized replicate data.
The results for various example compounds were as provided in the table below (+++<100 nM; ++100−500 nM; +>500 nM; ND: not determined): […]

| Structure (SMILES) | Mean Free Brain Fraction (%) [1] | IC50 [2] |
| --- | --- | --- |
| COc1ccc(COc2ccc3c(c2)CN(c2ccc(=O)n(C)n2)C3=O)nc1 [Compound 1-6, 5-[(5-Methoxypyridin-2-yl)methoxy]-2-(1-methyl-6-oxo-1,6-dihydropyridazin-3-yl)-2,3-dihydro-1H-isoindol-1-one] | 9.8% | < 0.1 µM |
| Cn1nc(N2Cc3cc(OCc4ccc(F)cn4)ccc3C2=O)ccc1=O [Compound 1-1, 5-((5-Fluoropyridin-2-yl)methoxy)-2-(1-methyl-6-oxo-1,6-dihydropyridazin-3-yl)isoindolin-1-one] | 12.0% | < 0.1 µM |
| COc1ccc(COc2ccc3c(c2)CN(c2ccc(=O)n(C)n2)C3)nc1 [Comparative Compound 1, reference compound] | 1.3% | – |
| [2H]C([2H])(Oc1ccc(COc2ccc3c(c2)CN(c2ccc(=O)n(C)n2)C3=O)nc1)C([2H])([2H])OS(=O)(=O)c1ccc(C)cc1 [Compound 1-9, 2-{[6-({[2-(1-Methyl-6-oxo-1,6-dihydropyridazin-3-yl)-1-oxo-2,3-dihydro-1H-isoindol-5-yl]oxy}methyl)pyridin-3-yl]oxy}(1,1,2,2-^2H4)ethyl 4-methylbenzene-1-sulfonate] | – | < 0.1 µM |
| Cn1nc(N2Cc3cc(OCc4ccc(OCCF)cn4)ccc3C2=O)ccc1=O [Compound 2-1, 5-{[5-(2-Fluoroethoxy)pyridin-2-yl]methoxy}-2-(1-methyl-6-oxo-1,6-dihydro-pyridazin-3-yl)-2,3-dihydro-1H-isoindol-1-one] | 14.3% | < 0.1 µM |
| Cn1nc(N2Cc3cc(OCc4cc(Cl)c(F)cn4)ccc3C2=O)ccc1=O [Compound 2-3, 5-[(4-Chloro-5-fluoropyridin-2-yl)methoxy]-2-(1-methyl-6-oxo-1,6-dihydropyridazin-3-yl)-2,3-dihydro-1H-isoindol-1-one] | 2.7% | < 0.1 µM |
| COc1ccc(COc2ccc3c(c2)CN(c2ccc(=O)n(C)n2)C3=O)nc1F [Compound 1-13, 5-[(6-Fluoro-5-methoxy-2-pyridyl)methoxy]-2-(1-methyl-6-oxo-pyridazin-3-yl)isoindolin-1-one] | 7.0% | < 0.1 µM |
| Cn1nc(N2Cc3cc(O)ccc3C2=O)ccc1=O [Compound 1-5, 5-Hydroxy-2-(1-methyl-6-oxo-1,6-dihydropyridazin-3-yl)-2,3-dihydro-1H-isoindol-1-one] | – | < 0.1 µM |
| COc1cnc(COc2ccc3c(c2)CN(c2ccc(=O)n(C)n2)C3=O)cc1F [Compound 1-14, 5-[(4-Fluoro-5-methoxypyridin-2-yl)methoxy]-2-(1-methyl-6-oxo-1,6-dihydropyridazin-3-yl)-2,3-dihydro-1H-isoindol-1-one] | 12.0% | – |

Now from value to molecule:

| Mean Free Brain Fraction (%) [1] | IC50 [2] | Structure (SMILES) |
| --- | --- | --- |
| 16.4% | < 0.1 µM | COc1ccc(COc2ccc3c(c2F)C(=O)N(c2ccc(=O)n(C)n2)C3)nc1 [Compound 12-10, 7-Fluoro-6-[(5-methoxypyridin-2-yl)methoxy]-2-(1-methyl-6-oxo-1,6-dihydropyridazin-3-yl)-2,3-dihydro-1H-isoindol-1-one] |
| 50.0% | < 0.1 µM | Cn1nc(N2Cc3cc(OCc4ccc(OCCF)cn4)cnc3C2=O)ccc1=O [Compound 12-6, 6-(3-{[5-(2-Fluoroethoxy)pyridin-2-yl]methoxy}-7-oxo-5H,6H,7H-pyrrolo[3,4-b]pyridin-6-yl)-2-methyl-2,3-dihydropyridazin-3-one] |
| 7.1% | < 0.1 µM | COc1ccc(COc2cc3c(cc2F)C(=O)N(c2ccc(=O)n(C)n2)C3)nc1 [Compound 12-1, 6-Fluoro-5-[(5-methoxypyridin-2-yl)methoxy]-2-(1-methyl-6-oxo-1,6-dihydropyridazin-3-yl)-2,3-dihydro-1H-isoindol-1-one] |
| 67.8% | < 0.1 µM | Cn1nc(N2Cc3cc(OCc4ccc(F)cn4)cnc3C2=O)ccc1=O [Compound 12-7, 6-{3-[(5-Fluoropyridin-2-yl)methoxy]-7-oxo-5H,6H,7H-pyrrolo[3,4-b]pyridin-6-yl}-2-methyl-2,3-dihydropyridazin-3-one] |
| 5.3% | < 0.1 µM | COc1ccc(COc2ccc3c(c2F)CN(c2ccc(=O)n(C)n2)C3=O)nc1 [Compound 12-2, 4-Fluoro-5-[(5-methoxypyridin-2-yl)methoxy]-2-(1-methyl-6-oxo-1,6-dihydropyridazin-3-yl)-2,3-dihydro-1H-isoindol-1-one] |
| 14.3% | < 0.1 µM | COc1ccc(COc2cc(F)c3c(c2)CN(c2ccc(=O)n(C)n2)C3=O)nc1 [Compound 10-1, 7-Fluoro-5-[(5-methoxypyridin-2-yl)methoxy]-2-(1-methyl-6-oxo-1,6-di-hydropyridazin-3-yl)-2,3-dihydro-1H-isoindol-1-one] |
| 5.2% | < 0.1 µM | COc1cc(COc2ccc3c(c2)CN(c2ccc(=O)[nH]n2)C3=O)ncc1F [Compound 9-3, 5-((5-Fluoro-4-methoxypyridin-2-yl)methoxy)-2-(6-oxo-1,6-dihydropyridazin-3-yl)isoindolin-1-one] |
| – | < 0.1 µM | [2H]C([2H])(F)C([2H])([2H])Oc1ccc(COc2cnc3c(c2)CN(c2ccc(=O)n(C)n2)C3=O)nc1 [Compound 12-9, 6-[3-([5-[2-Fluoro(1,1,2,2-^2H4)ethoxy]pyridin-2-yl]methoxy)-7-oxo-5H,6H,7H-pyrrolo[3,4-b]pyridin-6-yl]-2-methyl-2,3-dihydropyridazin-3-one] |
| – | < 0.1 µM | Cn1nc(N2Cc3cc(OCc4ccc(O)cn4)ccc3C2=O)ccc1=O [Compound 4-1, 5-[(5-Hydroxypyridin-2-yl)methoxy]-2-(1-methyl-6-oxo-1,6-dihydropyridazin-3-yl)-2,3-dihydro-1H-isoindol-1-one] |
| – | 0.1 to 0.5 µM | COc1ccc(COc2ccc3c(c2)CN(Cc2ccc(OC)nc2)C3=O)nc1 [Compound 7-1, 5-[(5-Methoxypyridin-2-yl)methoxy]-2-[(6-methoxypyridin-3-yl)methyl]-2,3-dihydro-1H-isoindol-1-one] |
| – | < 0.1 µM | [2H]C([2H])(F)C([2H])([2H])Oc1ccc(COc2ccc3c(c2)CN(c2ccc(=O)[nH]n2)C3=O)nc1 [Compound 9-2, 5-((5-(2-Fluoroethoxy-1,1,2,2-^2H4)pyridin-2-yl)methoxy)-2-(6-oxo-1,6-dihydropyridazin-3-yl)isoindolin-1-one] |
